In US8252899B2, “Methods and compositions for obtaining high-resolution crystals of membrane proteins” (The Scripps Research Institute, priority 2007, dated 2012):

Tests used:
[1] = target: β2AR Val114^3.33 to alanine mutant (Homo sapiens, UniProt P07550, V114A); settings: Chelikani et al. 2007; cited from earlier work
β2AR-T4L [2] = settings: for λmax ± SD for β2AR-T4L: bimane emission, excitation 350 nm, saturating ligand; for λmax ± SD for β2AR-T4L / Intensity at λmax Ligand/Intensity at λmax none, β2AR-T4L: 15 min incubation; for Intensity at λmax Ligand/Intensity at λmax none, β2AR-T4L: bimane fluorescence, ratio to no-ligand control
wild-type β2AR = wild-type β2AR (Homo sapiens, UniProt P07550); assay: Saturation binding of [3H]DHA to membranes from Sf9 cells expressing wild-type β2AR
β2AR-T4L [3] = assay: Saturation binding of [3H]DHA to membranes from Sf9 cells expressing β2AR-T4L; parameters: species or system human
Procedure: FIG. 15. Affinity curves for adrenergic ligands binding to β2AR-T4L and wildtype β2AR. […] Binding experiments on membranes isolated from Sf9 insect cells expressing the receptors were performed as described above.
Membrane preparation from baculovirus-infected Sf9 cells was performed as described previously (Swaminath, et al., Mol Pharmacol 61, 65 (2002)). For each binding reaction, membranes containing 0.7 μg total membrane protein were used. Saturation binding of [^3H]-dihydroalprenolol (DHA) was measured by incubating membranes resuspended in 500 μl binding buffer (75 mM Tris, 12.5 mM MgCl2, 1 mM EDTA, pH 7.4, supplemented with 0.4 mg/ml BSA) with 12 different concentrations of [^3H]DHA (Perkin Elmer) between 20 pM and 10 nM. After 1 h incubation with shaking at 230 rpm, membranes were filtered from the binding reactions with a Brandel harvester, washed with binding buffer, and measured for bound [^3H]DHA with a Beckman LS6000 scintillation counter. […] For competition binding, membranes resuspended in 500 μl binding buffer were incubated with 0.5 nM [^3H]DHA plus increasing concentrations of the competing ligand (all compounds were purchased from Sigma). […] Each data point in the curves in FIGS. 2A and S1 represents the mean of three separate experiments, each done in triplicate. Binding data were analyzed by nonlinear regression analysis using Graphpad Prism.

SMILES | ligand-induced change of bimane fluorescence (in words), β2AR-T4L (β2AR-T4L [2]) | λmax ± SD for β2AR-T4L (β2AR-T4L [2]) | Intensity at λmax Ligand/Intensity at λmax none, β2AR-T4L (β2AR-T4L [2]) | also measured
CNC[C@H](O)c1ccc(O)c(O)c1 [(−)-epinephrine] |  |  |  | lowering of affinity by Val114 to alanine mutation [1]: 300 fold
CC(C)NC[C@H](O)c1ccc(O)c(O)c1 [(−)-isoproteronol, (−)-isoproterenol] | qualitatively similar decrease in intensity and rightward shift in λmax | 455 ± 2 nm | 0.824 ± 0.006 | 
CCCc1ccccc1OCC(O)CNC(C)C (centres unmarked) [[^3H]DHA, [^3H]-dihydroalprenolol] |  |  |  | Bmax (wild-type β2AR): 30.0 ± 0.5 pmol/mg; Kd (wild-type β2AR; read-out: Kd ± SE): 0.161 ± 0.012 nM; affinity for β2AR-T4L relative to wild-type β2AR (saturation binding) (β2AR-T4L [3]): wild-type affinity; Kd (β2AR-T4L [3]; saturation binding, β2AR-T4L, Sf9 membranes, read-out: Kd ± SE): 0.18 ± 0.016 nM
CC(C)(C)NCC(O)c1ccc(O)c(CO)c1 (centres unmarked) [salbutamol] | larger responses | 449 ± 1 nm | 0.928 ± 0.009 | 
